Laboratory results published in patent publication US3989746A, “Substituted naphthyl anthranilic acids” (Ikeda Mohando Co., Ltd., priority 1972, dated 1976).

Assays:
Carragheenin foot edema = assay: Carragheenin foot edema; type: in vivo, rats (male, Wister type); conditions: Rattus norvegicus; 100 mg/Kg oral, 1 h before carragheenin; foot volume 3 h after injection; read-out: Anti-Inflammatory Effect Control Ratio, Carragheenin Foot Edema
Protocol: a. Carragheenin food edema
The test was conducted according to the method of C. […] Groups of rats (male rats of the Wister type having a body weight of 140-170 g), each group consisting of 5 to 11 rats, were caused to abstain from food for 16 hours, and a 4% gum arabic suspension of a test compound was orally administered to the rats in an amount of 100 mg/Kg. of the test compounds. Immediately, rats were allowed to drink 5 ml of purified water. […] After 3 hours had passed from the injection, the volume of the right foot was measured again to determine the increase of the volume of the right foot. In control groups, only a 4% gum arabic liquor free of a test compound was orally administered, and subsequent procedures were conducted similarly to determine the increase of the volume of the right foot. The carragheenin foot edema control ratio was calculated according to the following formula: [formula] wherein C indicates the foot volume increase in the control group and D indicates the foot volume increase in the test compound-administered group.

Ultraviolet erythema = assay: Ultraviolet erythema; type: in vivo, guinea pigs (male, Hartley type); conditions: Cavia porcellus, light or radiation study; 10 mg/Kg oral, 1 h before irradiation; read 3 h after irradiation; read-out: Anti-Inflammatory Effect Control Ratio, Ultraviolet Erythema
Protocol: The test was conducted according to a modification of the method of C. […] Groups of guinea pigs (male guinea pigs of the Hartley type having a body weight of 300 to 450 g), each group consisting of 5 to 10 guinea pigs, were employed for the test. Hairs were removed from backs of the guinea pigs by an electric hair-clipper and a depilatory agent. The guinea pigs were caused to abstain from food for 18 to 19 hours, and a test compound was orally administered in an amount of 10 mg/Kg in the form suspended in a 4% gum arabic liquor. In the case of control groups, only a 4% gum arabic liquor was administered. An adhesive plaster according to the Japanese pharmacopoeia, on which three small holes having a diameter of 5 mm were opened, was applied to the hair-removed portion of the back. […] When 3 hours had passed from the irradiation, the degree of the formation of erythema was determined. One point was given to the guinea pig on which a definite round erythema was formed, a point of 0.5 was given to the guinea pig on which formation of erythema was observed but its contour was not definite, and a point of 0 was given to the guinea pig on which no erythema was formed. Total points were calculated in both the test compound-administered group and the control group, and the control ratio was calculated from these total points. [formula]

Adjuvant arthritis = assay: Adjuvant arthritis; type: in vivo, rats (female, Wister type); conditions: Rattus norvegicus, 552 h; 9 mg/Kg per day oral for 25 days; foot volume on 23rd day from adjuvant injection; read-out: Anti-Inflammatory Effect Control Ratio, Adjuvant Arthritis
Protocol: With respect to the foregoing compounds, anti-inflammatory effects against carragheenin foot edema, ultraviolet erythema and adjuvant arthritis were tested by using rate according to the following methods to obtain results shown below.
The test was conducted according to a modification of the method of B. B. Newbould (Brit. J. Pharmacol., 21, 127 (1963)). Groups of female rats of the Wister type having a body weight of 180 - 240 g, each group consisting of 4 to 8 rats, were tested. 0.05 ml of an adjuvant (formed by suspending 5 mg of dead tuberculous bacillus, Aoyama B strain, in 1 ml of fluid paraffin according to the Japanese pharmacopoeia) was hypodermically injected in the right foot heel of each rat. A test compound was orally administered in a dosage of 9 mg/Kg per day in the form suspended in a 5% gum arabic liquor continuously for 25 days from one day before the injection of the adjuvant. In the case of the control group, only a 5% gum arabic liquor was continuously administered in the same manner. The volume of the right foot was measured 1 day before the injection of the adjuvant and on the 23rd day from the injection of the adjuvant with respect to each group. Thus, the increase of the foot volume was calculated in either the test compound-administered group or the control group, and the ratio of control of the adjuvant arthritis was calculated according to the following formula: [formula] in which C is the increase of the volume of the right foot in the control group and D indicates the increase of the volume of the right foot in the test compound-administered rat group.

inflammatory pain = assay: Analgesic effect on inflammatory pain (modified Randall and Selitto); type: in vivo, rats (male, Wister type); conditions: 100 mg/Kg oral, 1 hour before carragheenin; pain measured 3 hours after injection
Protocol: Groups of male rats of the Wister type having a body weight of about 150 g were tested, each group consisting of 5 rats. The rats were caused to abstain from food overnight, and 0.05 ml of a 1% carragheenin solution was hypodermically injected into the right hind leg of each rat. […] The test compound was orally administered in a dosage of 100 mg/Kg 1 hour before the injection of carragheenin. [formula]

in vivo [1] = conditions: mouse, in vivo, po
Protocol: (§1) With respect to the foregoing test compounds, the acute toxicity was examined by employing mice according to the following method.
(§2) Groups of male mice of the dd type having a body weight of 18 to 22 g, each, group consisting of 5 mice, were tested to determine the acute toxicity. The test compound was orally administered in a dosage indicated in Table 3a in the form suspended in 5% gum arabic liquor. The determination was conducted 7 days after the administration. Further, the LD50 values were calculated according to the method of Lichfield-Wilcoxon.

male mice = assay: in vivo; conditions: 7 days
Protocol: as §1, §2

in vivo [2] = conditions: rat, po

`O=C(O)c1ccccc1Nc1cccc(C(F)(F)F)c1` [Compound F, flufenamic acid, reference compound] showed an inhibition in vivo at 100 mg/kg (Carragheenin foot edema) of 60.7%, an inhibition in vivo at 10 mg/kg (Ultraviolet erythema) of 60% and an inhibition in vivo at 9 mg/kg (Adjuvant arthritis) of 72.4%. For the same compound, the “Analgesic Coefficient” value (inflammatory pain) was 1.42, the LD50 at 168 h (in vivo [1]) was 545 mg/kg and the “Number of Dead Mice/Number of Mice Tested” value (male mice; 1 g/kg oral) was 5 / 5. For the same compound, the “Number of Dead Mice/Number of Mice Tested” value (male mice; 2 g/kg oral) was 5 / 5 and the LD50 (in vivo [2]) was 270 mg/kg.
